In PubChem BioAssay AID2744 (NMMLSC, 2010):
The source made the active and inactive calls.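 How the source made its calls: active means fitted half-maximal concentration for changing reporter fluorescence at or below a set limit; inactive means the rest.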

Target: Citrate synthase, peroxisomal (Saccharomyces cerevisiae (strain ATCC 204508 / S288c)) (UniProt P08679)
Experiment: yeast TOR pathway CIT2-GFP reporter potency – flow cytometry, MLPCN hits, dose response (AID 2744)
Settings: S. cerevisiae CIT2-GFP strain, 3 h; for GFP fluorescence, higher = induction: at 33 µM (top of the series); for EC50: flow cytometry fluorescence

Citrate synthase, peroxisomal (Saccharomyces cerevisiae (strain ATCC 204508 / S288c)), sequence (P08679 whole entry, looked up): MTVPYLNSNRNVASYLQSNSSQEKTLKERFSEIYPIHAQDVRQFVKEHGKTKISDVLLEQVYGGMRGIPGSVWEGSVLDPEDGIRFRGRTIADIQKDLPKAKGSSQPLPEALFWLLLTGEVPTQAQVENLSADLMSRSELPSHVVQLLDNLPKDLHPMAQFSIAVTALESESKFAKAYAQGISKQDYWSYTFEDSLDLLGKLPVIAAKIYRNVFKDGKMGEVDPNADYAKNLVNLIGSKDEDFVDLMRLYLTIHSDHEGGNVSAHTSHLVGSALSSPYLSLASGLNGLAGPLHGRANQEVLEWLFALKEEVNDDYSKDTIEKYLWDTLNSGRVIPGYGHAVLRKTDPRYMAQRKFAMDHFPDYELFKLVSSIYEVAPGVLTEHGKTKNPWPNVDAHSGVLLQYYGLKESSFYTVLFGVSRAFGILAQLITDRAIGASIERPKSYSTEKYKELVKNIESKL

Compound	GFP fluorescence, higher = induction	EC50 [µM]
Cc1ccc(N=Nc2ccc(O)c3ncccc23)cc1	inactive	–
COc1cc(/C=C2\C(=O)ON=C2c2ccccc2)cc(OC)c1OC	inactive	–
CC(C)Cn1c(=O)c(C(=O)Nc2ccncc2)c(O)c2ccccc21	inactive	–
Cc1ccc(-c2nc(C)sc2CC(=O)Nc2nnc(C)s2)cc1	inactive	–
CC(C)(C)C(=O)NC(=S)NNC(=O)c1sc2ccccc2c1Cl	inactive	–
CC1=NOC(=O)/C1=C\c1ccc(-c2cc(Cl)ccc2Cl)o1	inactive	–
CCCc1ccc(OCC(=O)NNC(=S)NC(=O)c2ccco2)cc1	inactive	–
O=C(/C=C/c1ccnc2ccccc12)c1cccs1	inactive	–
O=c1c2cc(Cl)ccc2nc(-c2ccc([N+](=O)[O-])cc2)n1O	inactive	–
O=C(Nc1ccc(Cl)cc1)ON=C1CCCC1	–	1.23
O=C(c1ccc(Cl)cc1)N1CCN(c2cccc3[nH]ccc23)CC1	inactive	–
CCC(=O)Oc1oc(-c2ccccc2)nc1C=Nc1ccccc1OC	inactive	–
O=C1NC(=O)N(Cc2ccco2)C(=O)/C1=C/c1ccc(-c2cccc([N+](=O)[O-])c2)o1	inactive	–
O=S(=O)(/N=C(\Sc1ccc(Cl)cc1)c1ccccc1)c1ccccc1	inactive	–
C#CCOCCOCCOCCNc1nc(N2CCN(C(=O)CCCCCCCCCCNC(=O)[C@H](CCCCN)n3cc(CCO)nn3)CC2)nc(N2CCN(C(=O)CCCCCCCCCCNC(=O)[C@H](CCCCN)n3cc(C[C@@H](C)CC)nn3)CC2)n1	inactive	–
CCc1nc2ccccc2c(=O)n1NC(=O)c1c(O)c2cccc3c2n(c1=O)CCC3	inactive	–
O=C(NC(=S)NNC(=O)c1ccc(Cl)cc1Cl)c1cccnc1	inactive	–
CCc1cccc2sc(N3CCN(C(=O)c4ccc([N+](=O)[O-])o4)CC3)nc12	inactive	–
Cc1ccc(NC(=O)ON=C2CCCC2)cc1	–	3.79
O=[N+]([O-])c1cc(CN2CCN(c3ccccc3)CC2)c(O)c2ncccc12	inactive	–
COc1cccc(/C=C/C(=O)c2c(O)cc(C)oc2=O)c1O	inactive	–

Compound	GFP fluorescence, higher = induction	EC50 [µM]
O=C1Oc2ccccc2C(=O)/C1=C/c1ccccc1O	inactive	–
Cc1nn2c(-c3ccncc3)nnc2c2ccccc12	inactive	–
Nc1ccccc1SC(C[N+](=O)[O-])c1ccccc1 (stereo not drawn)	inactive	–
O=C1N(c2ccccc2C(F)(F)F)O[C@]1(c1ccccc1)C1CCCC1	inactive	–
O=c1[nH]c(-c2ccc(Cl)cc2)cs1	inactive	–
O=C1C(Cl)=C(Nc2ccccc2O)C(=O)N1CCc1ccccc1	inactive	–
O=c1c(-c2ccc(Cl)cc2)[n+]([O-])c2ccccc2n1O	inactive	–
CCCCOc1ccc(C(=O)NNC(=S)NC(=O)CC)cc1	inactive	–
C=CCn1c(C)c(/C=C/c2cc[n+](C)cc2)c2ccccc21	inactive	–
CC(Oc1ccc2ccccc2c1)C(=O)NNC(=S)NC(=O)c1ccco1 (stereo not drawn)	inactive	–
O=C(COc1ccccc1)N1CCN(c2ncnc3c2cnn3-c2ccccc2)CC1	inactive	–
Fc1cccc(Nc2ncnc3c2cnn3-c2ccccc2)c1	inactive	–
O=C(Nc1ccccc1)c1nnsc1S(=O)(=O)c1ccc(Cl)cc1	inactive	–
COc1ccc(N=Cc2nc(-c3ccccc3)oc2OC(C)=O)cc1	inactive	–
CCCCC(=O)NC(=S)NNC(=O)CCc1ccccc1	inactive	–
CCN1/C(=C/C=C/c2sc3ccccc3[n+]2CC)Sc2ccccc21	inactive	–
Cc1ccc(/C(N)=N/OC(=O)c2ccc(F)cc2)cc1	–	3.81
COc1ccccc1NC1=C(Cl)C(=O)N(c2ccccc2)C1=O	inactive	–
O=C1NC(=S)NC(=O)C1=Cc1ccc2c(c1)CCN2CCCCl	inactive	–
O=C(Oc1c(Cl)cc(Cl)c2cccnc12)c1cccs1	inactive	–
Cc1cc(O)c(C(=O)/C=C/c2ccc(Cl)cc2)c(=O)o1	inactive	–

Compound	GFP fluorescence, higher = induction	EC50 [µM]
O=C(/C=C/c1ccccc1)c1cc(Br)ccc(=O)c1O	inactive	–
O=C1c2cccc3c([N+](=O)[O-])ccc(c23)C(=O)N1O	inactive	–
N/C(Cc1ccc(Cl)c(Cl)c1)=N\OC(=O)c1cccs1	–	10.3
CCc1cc(C(=O)Nc2nc(-c3ccccn3)cs2)sc1C	inactive	–
CCOC(=O)CSC1=NC(=O)/C(=C\c2ccc(Cl)cc2)S1	inactive	–
Cc1ccnc(N2C(=O)c3cccc4c([N+](=O)[O-])ccc(c34)C2=O)c1	inactive	–
N#Cc1ccc(N=c2ssnc2Cl)cc1	inactive	–
O=C(OCC(=O)N1CCN(C(=O)c2ccco2)CC1)c1cc(-c2ccccc2)nc2ccccc12	inactive	–
CC(=O)SC(C[N+](=O)[O-])c1cn(C(C)=O)c2ccccc12 (stereo not drawn)	inactive	–
CCCOc1ccc(C(=O)NNC(=S)NC(=O)c2ccccc2)cc1	inactive	–
COc1cc(/C=C2/C(=O)ON=C2c2ccccc2)ccc1O	inactive	–
N=C1/C(=C\c2coc3ccccc3c2=O)C(=O)N=C2SC(c3ccncc3)=NN12	–	13
COc1ccc(CCNC2=C(Cl)C(=O)N(CCc3ccc(OC)c(OC)c3)C2=O)cc1OC	inactive	–
CSc1nnc2c3cc(F)ccc3n(C)c2n1	inactive	–
Nc1nc2ncc(CNc3ccc(C(=O)N[C@@H](CCC(=O)O)C(=O)O)cc3)nc2c(=O)[nH]1	inactive	–
COc1ccccc1C(=O)NNC(=S)NC(=O)c1ccco1	inactive	–
O=C(Sc1cccc2cccnc12)c1ccccc1Br	inactive	–
Cc1cccc(N=C2NC(=O)/C(=C/C=C/c3ccco3)S2)c1C	inactive	–
CC(=O)n1cc(C(C[N+](=O)[O-])SCCN)c2ccccc21 (stereo not drawn)	inactive	–
CCOC(=O)c1c(C)oc2c1c(C(c1ccncc1)N1CCOCC1)c(O)c1ccccc12 (stereo not drawn)	inactive	–
O=C(NNC(=S)NC(=O)c1ccco1)c1ccc(F)cc1	inactive	–

Compound	GFP fluorescence, higher = induction	EC50 [µM]
COc1cc(NC(=O)c2ccccc2[N+](=O)[O-])ccc1NC(=O)c1cc2ccccc2o1	inactive	–
CCCCS(=O)(=O)/C=C\C=C/S(=O)(=O)CCCC	inactive	–
Cc1ccc(C(CC(=O)O)NC(=O)c2ccc(S(=O)(=O)N3CC(C)OC(C)C3)cc2)cc1 (stereo not drawn)	inactive	–
COc1ccc([N+](=O)[O-])c(S(=O)(=O)c2ccc(Cl)cc2)n1	inactive	–
CCC(C)/C(C)=N/NC(=O)c1ccc(COc2ccc(Cl)c(C)c2)cc1 (stereo not drawn)	inactive	–
O=C(O)C1Sc2[nH]c(=O)sc2C2c3cc(Br)ccc3OC(=O)C12 (stereo not drawn)	inactive	–
O=C(/C=C/Sc1ncn[nH]1)c1ccc(Cl)cc1	inactive	–
O=C(OCC(=O)N1CCN(C(=O)c2ccco2)CC1)c1cc(-c2ccc(F)cc2)nc2ccccc12	inactive	–
O=C(CCS(=O)(=O)c1ccccc1)Nc1nc(-c2ccccn2)cs1	inactive	–
CCOC(=O)CCS(=O)(=O)c1nc(-c2ccccc2)cc(C(F)(F)F)n1	inactive	–
O=[N+]([O-])c1cc(S(=O)(=O)C(F)(F)F)ccc1Sc1nc2ccccc2s1	inactive	–
O=C(Oc1c(Cl)cc(Cl)c2cccnc12)c1ccco1	inactive	–
CN1C(=O)/C(=N\OC(=O)c2cccc3ccccc23)c2ccccc21	inactive	–
COCCN1C(=O)/C(=C/c2ccc(N3CCCC3)cc2C)SC1=S	inactive	–
Nc1nc(N)c2nc(CNc3ccc(C(=O)NC(CCC(=O)O)C(=O)O)cc3)cnc2n1 (stereo not drawn)	inactive	–
Cc1cccc(C(=O)NC(=S)NNC(=O)Cc2ccccc2)c1	inactive	–
Cc1ccc2nc(Cl)c3nnnn3c2c1	inactive	–
CC(C)[C@]1(c2ccccc2)ON(c2ccccc2C(F)(F)F)C1=O	inactive	–
COc1cc(/C=C/[N+](=O)[O-])ccc1O	inactive	–
C#CCOCCOCCOCCNc1nc(N2CCN(C(=O)CCCCCCCCCCNC(=O)[C@H](CCCCN)n3cc(CCO)nn3)CC2)nc(N2CCN(C(=O)CCCCCCCCCCNC(=O)[C@H](CCCN=C(N)N)n3cc(C[C@@H](C)CC)nn3)CC2)n1	inactive	–
